# Reference: US7442547B2, “Dendritic cells and the uses thereof in screening cellular targets and potential drugs” (Sekmed, S.R.L., priority 2001, dated 2008)
# Experiments:
# Type in all cases: cell-based, mouse
# [1] = tested on: DC (D1, D8, BMDC/RAG2−/−); assay: IL-2 production by DC after stimulation in vitro (IL-2 ELISA of supernatant); details: splenic (D1) and bone marrow-derived DC (D8, BMDC/RAG2−/−), long- and short-term lines
# Experimental: Antibodies and Reagents. LPS (E. Coli 026:B6, used at 10 μg/ml) and zymosan (used at 10 μg/ml) were obtained from Sigma Chem. (St. Louis, Mo.). rTNF, (San Francisco) and rIL-1. (Genzyme, Cambridge Mass.) were used at 100 U/ml and 10 μg/ml respectively. IFN was kindly provided by Schering-Plough (Dardilli, Fr.) and used at 1000 U/ml. CpG ([…])(SEQ ID NO. 5) and CpG control ([…]) (SEQ ID NO. 6) oligos were purchased from Life Technologies and used at a concentration of 1 µM. PE-conjugated anti-IL-2, PE-conjugated rat Isotype control, biotinilated anti-CD8α and FITC-conjugated anti-CD11c monoclonal antibodies were purchased from Pharmingen. Quantum-red-conjugated streptavidin was obtained from Sigma. Anti-I-A^d/I-E^d mAb (clone M5 /114, rat IgG2b) was kindly provided by Dr. A. Ager (NIMR, London, UK). FITC-conjugated anti-rat was from Jackson ImmunoResearch (West Grove, Pa.). Anti-CD40 antibody [clone FGK45 (10)] was used at a concentration of 20 μg/ml and crosslinked with a monoclonal anti-rat antibody (10 μg/ml, PharMingen).
# DC and culture medium. D1 and D8.1 long term DC were cultured in IMDM (Sigma, St. Louis, Mo.) containing 10% heat-inactivated fetal bovine serum (GIBCO), 100 IU penicillin, 100 μg/ml streptomycin, 2 mM L-glutamine (all from Sigma), and 50 μM 2-mercaptoethanol (complete IMDM) with 30% supernatant from R1 medium [supernatant from NIH3T3 fibroblasts transfected with GM-CSF].
# Fresh BMDCRAG2−/− were derived from RAG2−/− BALB/c or C57BL/6 bone marrow cells. Usually bone marrow cells cultured for two days and frozen. BMDCRAG2−/− were obtained from defrost cells after 7 days of culture in medium containing 10% of supernatant of GM-CSF transduced B16 tumor cells. BMDCRAG2−/− were used for activation only if they were immature, as judged by low B7.2 and CD40 expression.
# IL-2 ELISA. IL-2 ELISA was performed using the DuoSet kit (R and D, Minneapolis, Minn.) and following the manufacturer recommendations. […]
# [2] = tested on: D1 cells; assay: Differential gene expression analysis (Mu6500 GeneChip) in LPS- and TNF-α-stimulated versus unstimulated D1 cells; parameters: key: NC: No change in the level of expression; I: induced (detected only in stimulated cells); U: up-regulated; D: down-regulated; S: suppressed (detected only in unstimulated cells); details: no asterisk=fold change, *=AvgDiff after stimulation, **=AvgDiff in baseline
# Experimental: (§1) Cells and reagents. The D1 cells were derived from murine splenic DC and maintained in vitro in IMDM supplemented with 30% R1 conditional medium as previously described. LPS (Escherichia coli sero- type 026:B6) was purchased from Sigma Chemical Co. and used at 10 μg/ml. Muriner TNF-α (Genetech Inc., San Francisco. Calif.) was used at 100 U/ml. Cells were grown and harvested at the same time.
# RNA extraction, amplification and labeling for hybridization. Antisense cRNA was prepared following Affymetrix (Santa Clara, Calif.) recommendations. Briefly, mRNA was directly extracted from frozen pellets using the DIRECT OLIGOTEX KIT (i.e., column chromatography kit for mRNA purification) from Qiagen (Chatsworth, Calif.) and converted to double-stranded cDNA using a modified oligo dT primer with a 5′T7 RNA polymerase promoter sequence and the SUPER-SCRIPT CHOICE SYSTEM (i.e., reverse transcriptase system) for cDNA synthesis (Life Technologies, Gaithesbourg, Md.). Double-stranded cDNA (0.5 μg) was transcribed to cRNA with the T7 RNA polymerase (T7 MEGASCRIPT KIT (i.e., phage specific in vitro transcription kit); Ambion, Austin, Tex.) in the presence of a mixture of unlabeled ATP, CTP, GTP, UTP and biotin-labeled CTP and UTP (ENZO Diagnostics, Farmingdale, N.Y.). cRNA was purified on an affinity column (RNEASY (i.e., a RNA purification column); Qiagen).
# Probe array hybridization and scanning. The Mu6500 GENECHIP (i.e., DNA microarray) array consists of a set of four individual chips, A-D, collectively representing 6,500 murine genes and ESTs. Analysis of the D1 samples was performed by hybridizing the cRNA to the GENECHIP (i.e., DNA microarray) arrays A-D. Probe array hybridizations were carried out as described. cRNA was fragmented to an average size of 50-200 bases, by incubation for 30 min at 94° C. in 40 mM Tris-acetate pH 8.1, 100 mM potassium acetate and 30 mM magnesium acetate.
# Samples were then diluted in the hybridization solution (1 M NaCI, 10 mM Tris pH7.6, 0.005% Triton X-100, 0.1 mg/ml herring sperm DNA, BioB-, BioC-, BioD-, cre- control cRNA at a concentration of 1.5, 5, 25, 100 pM, respectively) at a final concentration of 0.05 μg/ml heated at 94° C. for 5 min and placed in the hybridization cartridge (200 μl/chip). Hybridizations were performed at 40° C. for 16 h. Following hybridization the chips were rinsed with 6× SSPE-T (0.9 M NaCI, 60 mM NaH2PO4, 6 mM EDTA, 0.005% Triton X-100 adjusted to pH 7.6) and 0.5× SSPE-T and stained by incubating with 2 μg/ml streptavidin-phycoerythrin (Molecular Probes, Eugene, Oreg.) and 1 mg/ml acetylated BSA (Sigma, St. Louis, Mo.).
# The arrays were read at a resolution of 7.5 μm. using a confocal scanner (Affymetrix) and analyzed with the GENECHIP 3.3 GENE EXPRESSION ANALYSIS PROGRAM (i.e., gene expression analysis software) (Affymetrix).
# Gene expression analysis was performed on immature, transitional (6 h LPS and TNF-α-activated) and mature (18 h LPS- and TNF-α-activated) D1 cells using GENECHIP (i.e., DNA microarray) oligonucleotide probe arrays representing approximately 6,500 distinct mouse genes and ESTs. The 6,500 probe sets are subdivided in four individual chips, A-D, each containing oligonucleotide probes for about 1,600 genes and ESTs. The hybridized arrays were analyzed using the GENECHIP 3.3 GENE EXPRESSION ANALYSIS PROGRAM (i.e., gene expression analysis software). Data analysis protocols, sensitivity and quantitative aspects of the method have been previously precisely described. In brief, gene probes are represented by 20 perfectly matched 20-mer oligonucleotides (PM) and 20 control oligonucleotides with a single mismatch (MM). Gene expression levels are defined averaging the differences (AvgDiff) between the PM and MM of every probe pair over the entire probe set:
# An AvgDiff of 20 approximates the lower value of fluorescence intensity for detected genes. […]
# [3] = tested on: D1 cells; assay: Growth of D1 cells after stimulation (number of viable cells)
# Text: D1 cells were stimulated either with LPS or TNF-α for the indicated time. The number of viable cells at the indicated time points is expressed as percentage of seeded cells. LPS, LPS-stimulated cells; TNF-α, TNF-α-stimulated cells; NS, non-stimulated cells. Standard deviations of five independent experiments are reported.
# as §1
substance,measurement,setting,value
"CpG: oligo DNA containing the unmethylated CpG motif, TCCATGACGTTCCTGATGCT (SEQ ID NO. 5), recognized by TLR9 (listed as DNA, further chemistry not given here)",induction of IL-2 production/secretion by DC,[1],efficient in stimulating DC to secrete IL-2
IL-1 β: inflammatory cytokine (Genzyme),induction of IL-2 production/secretion by DC,[1],"none of the inflammatory cytokines, used individually or added simultaneously to DC cultures, were able to promote IL-2 secretion"
tumor necrosis factor [TNFα],"1AP3 (Y08026) gene expression, stimulated versus unstimulated D1 cells",[2]; 6 h,NC
same,"BTG1 (L16846) gene expression, stimulated versus unstimulated D1 cells",[2]; 6 h,NC
same,"BTG3 (Z72000) gene expression, stimulated versus unstimulated D1 cells",[2]; 6 h,NC
same,"CD14 (M34510) gene expression, stimulated versus unstimulated D1 cells",[2]; 6 h,NC
same,"CD37 (U18372) gene expression, stimulated versus unstimulated D1 cells",[2]; 6 h,NC
same,"CD40 (M833312) gene expression, stimulated versus unstimulated D1 cells",[2]; 6 h,NC
same,"CYL-1 (M64403) gene expression, stimulated versus unstimulated D1 cells",[2]; 6 h,NC
same,"Clqα (X58861) gene expression, stimulated versus unstimulated D1 cells",[2]; 6 h,NC
same,"EtAI (X16151) gene expression, stimulated versus unstimulated D1 cells",[2]; 6 h,NC
same,"F4-80 (X93328) gene expression, stimulated versus unstimulated D1 cells",[2]; 6 h,NC
same,"GAS (U19860) gene expression, stimulated versus unstimulated D1 cells",[2]; 6 h,NC
same,"H-2Mα (U35323) gene expression, stimulated versus unstimulated D1 cells",[2]; 6 h,NC
same,"H-2Mβ1 (U35323) gene expression, stimulated versus unstimulated D1 cells",[2]; 6 h,NC
same,"I-Aα (K01923) gene expression, stimulated versus unstimulated D1 cells",[2]; 6 h,NC
same,"I-Aβ (V01527) gene expression, stimulated versus unstimulated D1 cells",[2]; 6 h,NC
same,"IL-6 (J03783) gene expression, stimulated versus unstimulated D1 cells",[2]; 6 h,NC
same,"IL-12p40 (M86671) gene expression, stimulated versus unstimulated D1 cells",[2]; 6 h,NC
same,"IL-IRA (M64404) gene expression, stimulated versus unstimulated D1 cells",[2]; 6 h,NC
same,"Jaw1 (U10484) gene expression, stimulated versus unstimulated D1 cells",[2]; 6 h,NC
same,"Ki-67 (X82786) gene expression, stimulated versus unstimulated D1 cells",[2]; 6 h,NC
same,"MIP-1α (M73061) gene expression, stimulated versus unstimulated D1 cells",[2]; 6 h,NC
same,"MIP-2 (X53798) gene expression, stimulated versus unstimulated D1 cells",[2]; 6 h,NC
same,"Macrostatin (X68273) gene expression, stimulated versus unstimulated D1 cells",[2]; 6 h,NC
same,"OX40L (U12763) gene expression, stimulated versus unstimulated D1 cells",[2]; 6 h,NC
same,"PA28 (U60329) gene expression, stimulated versus unstimulated D1 cells",[2]; 6 h,NC
same,"RCK (D50494) gene expression, stimulated versus unstimulated D1 cells",[2]; 6 h,NC
same,"TAP-1cas (M55637) gene expression, stimulated versus unstimulated D1 cells",[2]; 6 h,NC
same,"TIS (D86344) gene expression, stimulated versus unstimulated D1 cells",[2]; 6 h,NC
same,"TMP (U25633) gene expression, stimulated versus unstimulated D1 cells",[2]; 6 h,NC
same,"TSA1 (U47737) gene expression, stimulated versus unstimulated D1 cells",[2]; 6 h,NC
same,"c-1AP-I (L49433) gene expression, stimulated versus unstimulated D1 cells",[2]; 6 h,NC
same,"cyclin A (Z26580) gene expression, stimulated versus unstimulated D1 cells",[2]; 6 h,NC
same,"cyclin B1 (X64713) gene expression, stimulated versus unstimulated D1 cells",[2]; 6 h,NC
same,"cyclin B2 (X66032) gene expression, stimulated versus unstimulated D1 cells",[2]; 6 h,NC
same,"cyclin D2 (M83749) gene expression, stimulated versus unstimulated D1 cells",[2]; 6 h,NC
same,"serum amyloid (X03505) gene expression, stimulated versus unstimulated D1 cells",[2]; 6 h,NC
same,"βig-h3 (L19932) gene expression, stimulated versus unstimulated D1 cells",[2]; 6 h,NC
same,"BTG1 (L16846) gene expression, stimulated versus unstimulated D1 cells",[2]; 18 h,NC
same,"CD14 (M34510) gene expression, stimulated versus unstimulated D1 cells",[2]; 18 h,NC
same,"CD37 (U18372) gene expression, stimulated versus unstimulated D1 cells",[2]; 18 h,NC
same,"CYL-1 (M64403) gene expression, stimulated versus unstimulated D1 cells",[2]; 18 h,NC
same,"Clqα (X58861) gene expression, stimulated versus unstimulated D1 cells",[2]; 18 h,NC
same,"F4-80 (X93328) gene expression, stimulated versus unstimulated D1 cells",[2]; 18 h,NC
same,"GAS (U19860) gene expression, stimulated versus unstimulated D1 cells",[2]; 18 h,NC
same,"H-2Mα (U35323) gene expression, stimulated versus unstimulated D1 cells",[2]; 18 h,NC
same,"H-2Mβ1 (U35323) gene expression, stimulated versus unstimulated D1 cells",[2]; 18 h,NC
same,"I-Aα (K01923) gene expression, stimulated versus unstimulated D1 cells",[2]; 18 h,NC
same,"I-Aβ (V01527) gene expression, stimulated versus unstimulated D1 cells",[2]; 18 h,NC
same,"IL-6 (J03783) gene expression, stimulated versus unstimulated D1 cells",[2]; 18 h,NC
same,"IL-12p40 (M86671) gene expression, stimulated versus unstimulated D1 cells",[2]; 18 h,NC
same,"IL-IRA (M64404) gene expression, stimulated versus unstimulated D1 cells",[2]; 18 h,NC
same,"MIP-1α (M73061) gene expression, stimulated versus unstimulated D1 cells",[2]; 18 h,NC
same,"MIP-2 (X53798) gene expression, stimulated versus unstimulated D1 cells",[2]; 18 h,NC
same,"Macrostatin (X68273) gene expression, stimulated versus unstimulated D1 cells",[2]; 18 h,NC
same,"OX40L (U12763) gene expression, stimulated versus unstimulated D1 cells",[2]; 18 h,NC
same,"PA28 (U60329) gene expression, stimulated versus unstimulated D1 cells",[2]; 18 h,NC
same,"RCK (D50494) gene expression, stimulated versus unstimulated D1 cells",[2]; 18 h,NC
same,"TAP-1cas (M55637) gene expression, stimulated versus unstimulated D1 cells",[2]; 18 h,NC
same,"TIS (D86344) gene expression, stimulated versus unstimulated D1 cells",[2]; 18 h,NC
same,"TSA1 (U47737) gene expression, stimulated versus unstimulated D1 cells",[2]; 18 h,NC
same,"cyclin A (Z26580) gene expression, stimulated versus unstimulated D1 cells",[2]; 18 h,NC
same,"cyclin D2 (M83749) gene expression, stimulated versus unstimulated D1 cells",[2]; 18 h,NC
same,"mMCM2 (D86725) gene expression, stimulated versus unstimulated D1 cells",[2]; 18 h,NC
same,"properdin (X12905) gene expression, stimulated versus unstimulated D1 cells",[2]; 18 h,NC
same,"βig-h3 (L19932) gene expression, stimulated versus unstimulated D1 cells",[2]; 18 h,NC
same,induction of IL-2 production/secretion by DC,[1],"none of the inflammatory cytokines, used individually or added simultaneously to DC cultures, were able to promote IL-2 secretion"
same,doubling time of activated D1 cells,[3],130 h
same,growth arrest of D1 cells,[3]; after stimulation,only a strong proliferation slow down but not a definitive growth arrest
